Laboratory results from patent US20100120715A1, “BETA-LACTAMASE INHIBITORS” (priority 2007, published 2010).
Where two headings read alike, the source gives them in different places.

What was measured:
Class C P99 AmpC = target: T1, Class C P99 AmpC (Enterobacter cloacae, UniProt P05364); type: biochemical; details: purified enzyme; nitrocefin 100 μM, PBS pH 7.0; read-out: P99 AmpC IC50 Range
T1 construct: made in house; host or cells: E. coli BL21(DE3)
Experimental: (§1) Isolation of β-lactamases. For all examples, purified beta-lactamase enzymes were used to measure a compounds' ability to inhibit the Class A ESBL CTXM-15, the Class C P99 AmpC and the Class A carbapenemase KPC-2. […] The enzyme preparations are described herein.
(§2) For the isolation and purification of SHV-5, p99 AmpC, KPC-2 and CTX-M15 β-lactamases, E. coli BL21(DE3) bacterial cells carrying expression plasmids (expressed as native untagged proteins) for the individual β-lactamases were grown in 1 L of Superbroth (Teknova Inc. Hollister, Calif.) supplemented with 100 μg/ml kanamycin and 1×5052 (0.5% glycerol, 0.05% glucose and 0.2% α-lactose) at 35° C. for 18-20 hours. Cells were harvested by centrifugation (4,000×g, 4° C., 20 min), and resuspended in 50 ml of 10 mM HEPES pH 7.5 ( 1/20 of the initial volume). The cells were lysed by sonication (5 pulses of 45 seconds) at 45 W on ice. The lysates were clarified by centrifugation at 10,000×g for 40 minutes at 4° C. Samples were diluted 5-fold in 50 mM sodium acetate pH 5.0, stored overnight at 4° C., after which they were centrifuged at 10,000×g for 30 minutes to clarify, and filtered through 0.45 μm filters. The samples were loaded onto a 5 ml Capto S sepharose cation exchange column (GE Healthcare) pre-equilibrated with 50 mM sodium acetate pH 5.0. The column was washed with 5 column volumes of 50 mM sodium acetate pH 5.0 to wash out unbound protein and a linear gradient of NaCl (0 to 500 mM) was used to elute the protein (over 16 CV) from the column. Fractions were assayed for β-lactamase activity using Centa (Calbiochem, Gibbstown, N.J.) as a reporter β-lactamase substrate for activity in the isolated fractions. Active fractions were pooled, concentrated and further purified by gel filtration chromatography on a Superdex 75 prep grade gel filtration column (GE Healthcare, Piscataway, N.J.) pre-equilibrated in 50 mM Hepes pH 7.5, 150 mM NaCl. Active fractions were pooled concentrated, quantitated by BCA protein determination (Thermo Scientific, Rockford, Ill.), and frozen at −80° C. in 20% glycerol until use.
(§3) β-lactamase Inhibition. To determine the level of inhibition of β-lactamaseenzymes, compounds were diluted in PBS at pH 7.0 to yield concentrations between 100 and 0.005 μM in microtiter plates. An equal volume of diluted enzyme stock was added, and the plates were incubated at 37° C. for 10 min. Nitrocefin solution was then dispensed as substrate into each well at a final concentration of 100 μM, and the plates were immediately read with the kinetic program at 486 nm for 10 min on the SPECTRAMAX® Plus^384 (high-throughput microplate spectrophotometer; Molecular Devices Corp., Sunnyvale, Calif.). Maximum rates of metabolism were then compared to those in control wells (without inhibitors), and percentages of enzyme inhibition were calculated for each concentration of inhibitor. The concentration of inhibitor needed to reduce the initial rate of hydrolysis of substrate by 50% (IC50) was calculated as the residual activity of β-lactamase at 486 nm using the SoftMax Pro 5.0 software (Molecular Devices Corp.).

[1] = system: K. pneumoniae expressing the Class A ESBL CTX-M-15; test: microbe, parasite or virus in culture; type: cell-based; details: in the presence of fixed 8 μg/mL Ceftazidime
Source text: To determine the ability of test compounds to potentiate the inhibition of the growth of bacterial strains producing beta-lactamase enzymes, classic cell based screening assays were employed. Four bacteria strains producing beta-lactamase enzymes were used: K. pneumoniae expressing the Class A Extended Spectrum Beta-Lactamase (ESBL) CTX-M-15, E. coli expressing the Class A ESBL SHV-5, E. cloacae expressing the Class C P99+, and K. pneumoniae expressing the Class A carbapenemase KPC-2. In order to evaluate the ability of test compounds to inhibit beta-lactamase activity, Applicants used a modification of the broth microdilution assay. The assay was conducted in Cation Adjusted Mueller Hinton Broth (CAMHB, BD # 212322, BD Diagnostic Systems, Sparks, Md.). Bacteria strains were grown for 3-5 hours in CAMBH broth. All four strains were grown in presence of 50 μg/mL ampicillin to ensure resistance is maintained. In the meantime, test compounds were diluted in DMSO to a 0.1 mg/mL stock. The compounds were added to a microtiter plate and were diluted in 2-fold serial dilutions in CAMHB in a final concentration range of 8 μg/mL to 0.015 μg/ml. […] […] Each of these compound plates are made in quadruplicate, one for each bacteria strain. In addition to the titration of test compounds the MICs of a panel of cephalosporins is also tested to ensure the strains are behaving consistently from test to test. Once the test compound and cephalosporin are added the plates can be inoculated. Inocula are conducted according to CLSI broth microdilution method. After inoculation the plates are incubated for 16-20 hours at 37° C. then the Minimal Inhibitory Concentration (MIC) of the test compound is determined visually.

[2] = target: T2, Class A carbapenemase KPC-2 (Klebsiella pneumoniae, UniProt Q9F663); test: β-lactamase enzyme inhibition (nitrocefin hydrolysis), KPC-2; type: biochemical; details: purified enzyme; nitrocefin 100 μM, PBS pH 7.0; read-out: KPC-2 IC50 Range
T2 construct: made in house; host or cells: E. coli BL21(DE3)
T2 sequence (Q9F663 25-293 limits assumed): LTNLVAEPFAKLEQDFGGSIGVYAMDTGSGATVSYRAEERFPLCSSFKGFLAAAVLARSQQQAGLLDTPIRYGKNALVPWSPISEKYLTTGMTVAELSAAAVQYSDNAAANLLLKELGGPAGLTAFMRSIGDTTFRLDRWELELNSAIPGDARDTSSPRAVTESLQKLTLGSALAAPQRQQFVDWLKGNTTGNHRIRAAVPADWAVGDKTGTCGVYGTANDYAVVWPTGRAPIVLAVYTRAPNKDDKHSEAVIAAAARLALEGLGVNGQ
Experimental: as §1, §2, §3

[3] = system: K. pneumoniae expressing the Class A carbapenemase KPC-2; test: microbe, parasite or virus in culture; details: in the presence of fixed 8 μg/mL Ceftazidime
Source text: To determine the ability of test compounds to potentiate the inhibition of the growth of bacterial strains producing beta-lactamase enzymes, classic cell based screening assays were employed. Four bacteria strains producing beta-lactamase enzymes were used: K. pneumoniae expressing the Class A Extended Spectrum Beta-Lactamase (ESBL) CTX-M-15, E. coli expressing the Class A ESBL SHV-5, E. cloacae expressing the Class C P99+, and K. pneumoniae expressing the Class A carbapenemase KPC-2. In order to evaluate the ability of test compounds to inhibit beta-lactamase activity, Applicants used a modification of the broth microdilution assay. The assay was conducted in Cation Adjusted Mueller Hinton Broth (CAMHB, BD # 212322, BD Diagnostic Systems, Sparks, Md.). Bacteria strains were grown for 3-5 hours in CAMBH broth. All four strains were grown in presence of 50 μg/mL ampicillin to ensure resistance is maintained. In the meantime, test compounds were diluted in DMSO to a 0.1 mg/mL stock. The compounds were added to a microtiter plate and were diluted in 2-fold serial dilutions in CAMHB in a final concentration range of 8 μg/mL to 0.015 μg/ml. An overlay of CAMHB containing a cephalosporin was added to the compounds at a final static concentration of 8 μg/ml. […] Each of these compound plates are made in quadruplicate, one for each bacteria strain. In addition to the titration of test compounds the MICs of a panel of cephalosporins is also tested to ensure the strains are behaving consistently from test to test. Once the test compound and cephalosporin are added the plates can be inoculated. Inocula are conducted according to CLSI broth microdilution method. After inoculation the plates are incubated for 16-20 hours at 37° C. then the Minimal Inhibitory Concentration (MIC) of the test compound is determined visually.

Class A ESBL CTXM-15 = target: T3, Class A ESBL CTXM-15 (Escherichia coli, UniProt Q9EXV5); test: β-lactamase enzyme inhibition (nitrocefin hydrolysis), CTXM-15; type: biochemical; details: purified enzyme; nitrocefin 100 μM, PBS pH 7.0; read-out: CTXM-15 IC50 Range
T3 construct: made in house; host or cells: E. coli BL21(DE3)
T3 sequence (Q9EXV5 entry or part of it): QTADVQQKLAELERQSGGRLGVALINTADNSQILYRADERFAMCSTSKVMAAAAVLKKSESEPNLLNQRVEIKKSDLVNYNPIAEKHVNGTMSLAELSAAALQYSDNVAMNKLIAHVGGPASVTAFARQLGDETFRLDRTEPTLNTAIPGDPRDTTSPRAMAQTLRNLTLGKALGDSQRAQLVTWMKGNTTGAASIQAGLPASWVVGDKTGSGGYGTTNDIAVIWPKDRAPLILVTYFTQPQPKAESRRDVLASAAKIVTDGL
Experimental: as §1, §2, §3

Class A ESBL SHV-5 = target: T4, Class A ESBL SHV-5 (Klebsiella pneumoniae, UniProt P0A3M1); type: biochemical, E. coli; details: nitrocefin 100 μM, PBS pH 7.0, read-out: SHV-5 IC50 Range
T4 construct: made in house; host or cells: E. coli BL21(DE3) for purified enzyme; E. coli cells containing SHV-5 for extracts
T4 sequence (P0A3M1 22-286): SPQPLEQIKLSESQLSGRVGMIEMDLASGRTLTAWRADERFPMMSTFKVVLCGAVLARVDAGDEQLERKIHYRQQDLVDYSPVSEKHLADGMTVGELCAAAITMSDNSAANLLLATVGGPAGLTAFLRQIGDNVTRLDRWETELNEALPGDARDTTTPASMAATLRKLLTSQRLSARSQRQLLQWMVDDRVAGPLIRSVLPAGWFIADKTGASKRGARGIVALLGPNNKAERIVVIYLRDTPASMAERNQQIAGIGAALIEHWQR
Experimental: as §1
For the preparation of SHV-5 extracts, E. coli cells containing SHV-5 were cultured overnight with shaking at a volume of 20 mL. They were further diluted 10-fold and grown to mid-log phase (OD at 600 nm, 0.5-0.8) in Mueller-Hinton II (MH-II) broth at 37° C. The cells were pelleted at 5000 g, washed and resuspended in 2 mL PBS pH 7.0. The β-lactamase was extracted by four cycles of freezing and thawing followed by centrifugation. β-lactamase activity in the extract was measured with the chromogenic cephalosporin nitrocefin. The amount of protein in each β-lactamase preparation was determined by the bicinchoninic acid (BCA) assay.
as §2, §3

[4] = purified beta-lactamase enzyme (Examples 1 and 31-64)
[5] = cellular extracts of E. coli containing SHV-5 (Examples 2-30)

T1 sequence (P05364 21-381): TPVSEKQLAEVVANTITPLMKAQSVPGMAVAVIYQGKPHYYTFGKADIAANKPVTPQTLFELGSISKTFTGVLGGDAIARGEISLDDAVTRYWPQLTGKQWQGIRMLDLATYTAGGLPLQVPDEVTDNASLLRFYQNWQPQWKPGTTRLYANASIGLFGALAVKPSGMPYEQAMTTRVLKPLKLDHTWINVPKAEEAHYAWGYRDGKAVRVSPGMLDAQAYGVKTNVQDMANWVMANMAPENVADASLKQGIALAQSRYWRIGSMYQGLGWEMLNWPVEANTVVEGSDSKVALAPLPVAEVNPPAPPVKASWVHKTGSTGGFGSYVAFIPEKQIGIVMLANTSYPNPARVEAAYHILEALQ

Row | Compound | IC50 (Class C P99 AmpC) [nM] | MIC of example compound, K. pneumoniae CTX-M-15 + 8 μg/mL CAZ [1] | IC50 [2] [nM] | MIC of example compound, K. pneumoniae KPC-2 + 8 μg/mL CAZ [3] | IC50 (Class A ESBL CTXM-15) [nM] | IC50 (Class A ESBL SHV-5; [4]) [nM] | IC50 (Class A ESBL SHV-5; [5]) [nM]
1 | O=C(Cn1cccn1)N[C@@H](Cc1cccc(C(=O)O)c1O)B(O)O [Example 40, (1R)-1-(Pyrazol-1-yl-acetylamino)-2-(2-hydroxy-3-carboxyphenyl)ethyl-1-boronic acid] | 10 to 100 | C (C represents an MIC of <1 μg/mL) | 10 to 100 | C (C represents an MIC of <1 μg/mL) | 10 to 100 | 10 to 100 | –
2 | CS(=O)(=O)c1ccc(CC(=O)N[C@@H](Cc2cccc(C(=O)O)c2O)B(O)O)cc1 [Example 62, (1R)-1-(2-(4-(methylsulfonyl)phenyl)-acetylamino)-2-(2-hydroxy-3-carboxyphenyl)ethyl-1-boronic acid] | < 10 | C (C represents an MIC of <1 μg/mL) | < 10 | C (C represents an MIC of <1 μg/mL) | < 10 | < 10 | –
3 | O=C(Cc1cccc(O)c1)N[C@@H](Cc1cccc(C(=O)O)c1O)B(O)O [Example 3, (1R)-1-(3-hydroxy-phenyl)acetylamino-1-(3-carboxy-2-hydroxy)benzyl-methyl boronic acid] | < 10 | C (C represents an MIC of <1 μg/mL) | – | C (C represents an MIC of <1 μg/mL) | < 10 | – | < 10
4 | Cn1ccc(C(=O)N[C@@H](Cc2cccc(C(=O)O)c2O)B(O)O)n1 [Example 53, (1R)-1-(1-Methyl-1H-pyrazole-3-carbonyl-amino)-2-(2-hydroxy-3-carboxyphenyl)ethyl-1-boronic acid] | < 10 | C (C represents an MIC of <1 μg/mL) | < 10 | C (C represents an MIC of <1 μg/mL) | < 10 | 100 to 1000 | –
5 | N[C@H](C(=O)N[C@@H](Cc1cccc(C(=O)O)c1O)B(O)O)c1ccccc1.O=CO [Example 12, (1R,2′S)-1-(2-amino-2-phenylacetylamino)-2-(2-hydroxy-3-carboxyphenyl)ethyl-1-boronic acid formate salt] | 100 to 1000 | C (C represents an MIC of <1 μg/mL) | – | C (C represents an MIC of <1 μg/mL) | 10 to 100 | – | 100 to 1000
6 | NC(=O)COc1cccc(CC(=O)N[C@@H](Cc2cccc(C(=O)O)c2O)B(O)O)c1 [Example 8, (1R)-1-[(3-carbamoylmethoxy)-phenyl]-acetylamino-(3-carboxy-2-hydroxy), benzyl-methylboronic acid] | < 10 | C (C represents an MIC of <1 μg/mL) | – | C (C represents an MIC of <1 μg/mL) | < 10 | – | < 10
7 | O=C(Cc1cc(O)ccc1O)N[C@@H](Cc1cccc(C(=O)O)c1O)B(O)O [Example 18, (1R)-1-(2-(2,5-dihydroxyphenyl)acetylamino)-2-(2-hydroxy-3-carboxyphenyl)ethyl-1-boronic acid] | < 10 | C (C represents an MIC of <1 μg/mL) | < 10 | – | < 10 | – | < 10
8 | CC(=O)N[C@@H](Cc1cccc(C(=O)O)c1O)B(O)O [Example 6, (1R)-1-(2-acetylamino)-2-(2-hydroxy-3-carboxyphenyl)ethyl-1-boronic acid] | 10 to 100 | C (C represents an MIC of <1 μg/mL) | – | C (C represents an MIC of <1 μg/mL) | < 10 | – | 100 to 1000
